Experimental findings from US6902926B1, “Toxoplasma gondii apical membrane antigen-1” (priority 2000, dated 2005) are described below.

The test system of the assay is secretion of the 53-kDa fragment of TgAMA-1. As to the kind of experiment: Secretion assay: TgAMA-1 released from tachyzoites into culture supernatant, by western blot. Format: cell-based, Toxoplasma gondii. The note with it: for secretion of the 53-kDa fragment of TgAMA-1: 2-min treatment at 37° C. On the procedure:
Tachyzoites (2F strain, constitutively expressing cytoplasmic β-galactosidase [generous gift of David Sibley]) were washed twice in DMEM+20 mM HEPES, pH 7.0 (4 min, 1000×g, 23° C.), and resuspended in 4 ml polystyrene round bottom tubes at a concentration of 2×10^8 tachyzoites/ml. The suspension was incubated for various times at 37° C. or treated for 15 min at 23° C. with either 1.0% (v/v) DMSO or 20 μM BAPTA-AM (1.0% [v/v] DMSO final), followed by 2 min at 37° C. with 200 nM A23187 (1.0% [v/v] DMSO final) or 1.0% ethanol. Cells were pelleted (4 min, 1000×g, 4° C.) and dissolved in SDS-PAGE sample buffer. Supernatants were recentrifuged (4 min, 1000×g, 4° C.) and dissolved in sample buffer. The samples were incubated for 10 min at 100° C. and analyzed by SDS-PAGE/western blotting. Gels to be probed with either Mab B3.90 or antipeptide antiserum UVT59 were run under non-reducing conditions; blots to be probed with Mab 6D10 were run under reducing conditions. The extent of parasite lysis was determined by measuring the levels of β-galactosidase in the supernatant, as previously described.
Background: Immunoblotting shows a protein as a band on a membrane.

`CNc1ccc2oc(C[C@H]3O[C@@]4(CC[C@H]3C)O[C@H]([C@H](C)C(=O)c3ccc[nH]3)[C@H](C)C[C@H]4C)nc2c1C(=O)O` [A23187]: the “secretion of the 53-kDa fragment of TgAMA-1” value is on record as “dramatically enhanced”.

For `CC(=O)OCOC(=O)CN(CC(=O)OCOC(C)=O)c1ccccc1OCCOc1ccccc1N(CC(=O)OCOC(C)=O)CC(=O)OCOC(C)=O` [BAPTA-AM], the “effect of pretreatment on ethanol/A23187-enhanced secretion of the 53-kDa fragment” value (pretreating the parasites before ethanol or A23187) is “abrogated”.

On to `CCO` [ethanol], for which the “secretion of the 53-kDa fragment of TgAMA-1” value was “dramatically enhanced”.
